Source: publication PMC7113582, “Peptide Self-Assembly Is Linked to Antibacterial, but Not Antifungal, Activity of Histatin 5 Derivatives” (mSphere, 2020)

How the values were obtained:
[1] = tested on: Candida albicans (SC5341); test: FITC uptake assay (membrane permeabilization); format: cell-based; settings: C. albicans 2 × 10^7 cells per ml, 10 mM sodium phosphate buffer pH 7.4, 250 μg/ml peptide, 6 h at 30°C; no-peptide control 1%
Description: This assay was adapted from a previously reported method ([53]). Candida albicans (SC5341) cells were suspended (2 × 10^7 cells per ml) in 10 mM sodium phosphate buffer (pH 7.4) and treated with each of the peptides for 6 h at 30°C. Samples were then incubated with 6 μg/ml FITC (the stock solution is 10 mg/ml in acetone) plus 10 mM sodium phosphate buffer at 30°C for 30 min. A 10-μl volume of each sample was plated on an individual glass slide, and the slides were then washed with 10 mM sodium phosphate buffer thrice and examined using an Eclipse E600 fluorescence microscope (Nikon, Japan). The results presented are representative of three independent experiments.

[2] = tested on: E. coli bacteria (ATCC 25922); test: Bacterial kinetic growth inhibition analysis, E. coli; format: cell-based, Escherichia coli
Description: Each of the peptides was diluted by serial 2-fold dilutions in M9 minimal media in Corning (3879) 96-well plates (Sigma-Aldrich, Israel). E. coli bacteria (ATCC 25922) were grown overnight in M9 minimal media and diluted 1,000-fold in M9 media and grown for 5 h at 37°C. In Corning (3596) 96-well plates, 75-μl volumes of the serial 2-fold dilutions of each test compound were added to 75 μl of growth medium containing bacteria (5 × 10̂^6 CFU/ml). Bacteria and test compounds were incubated overnight at 37°C, and kinetic growth inhibition was determined by measurements of optical density at 600 nm using a Biotek Synergy HT microplate reader.

[3] = tested on: S. epidermidis; test: Bacterial kinetic growth inhibition analysis, S. epidermidis; format: cell-based, Staphylococcus epidermidis
[4] = Self-assembly observed by transmission electron microscopy; format: physicochemical; settings: 1 mg/ml in water, heated 50 min at 90°C, cooled gradually to 25°C overnight; negative stain TEM
Description: Lyophilized powders of each of the peptides (Genscript Biotech, USA) were dissolved in ultrapure water (BioInd, Israel) to a concentration of 1 mg/ml and heated for 50 min at 90°C, allowing the peptides to reach the monomeric state, and were then allowed to cool gradually to 25°C overnight. This treatment facilitated the self-assembly and nanostructure formation of L7F but not dhvar2.
TEM imaging was performed by applying 10-μl samples to 400-mesh copper grids covered by a carbon-stabilized Formvar film (SPI, West Chester, PA, USA). The samples were allowed to adsorb for 2 min before excess fluid was blotted off. Negative staining was then achieved by depositing 10 μl of 2% uranyl acetate on the grid for 2 min before blotting off excess fluid. Micrographs were obtained using a Tecnai 12 electron microscope (FEI, Tokyo, Japan) operating at 120 kV.

[5] = Lipid/PDA vesicle fluorescent chromatic response, DOPC-containing model membrane; settings: DOPC/DMPG/ErgS/PDA SUVs; peptide 1 mg/ml stock, Tris-base buffer pH 8.0, 27°C, %FCR
Description: (§1) Vesicles containing the diacetylene monomer 10,12-tricosadiynoic acid (TRCDA) and the lipid and ergosterol components DOPC/DMPG/ErgS/PDA and DOPE/DMPG/ErgS/PDA (1:0.6:0.4:3) were dissolved in chloroform/ethanol (1:1) and dried together in vacuo to reach a constant weight, followed by addition of deionized water to reach a final concentration of 1 mM, and were subsequently subjected to probe sonication at 40 W at 70°C for 3 min. The vesicle solution was subsequently cooled at room temperature and kept at 4°C overnight. The solution was then irradiated at 254 nm for 30s, resulting in intense blue color appearance due to polymerization of the diacethylene units.
(§2) Fluorescence was measured on a Fluscan Ascent microplate reader using a 96-well microplate (Grainer), excitation at 485 nm and emission at 555 nm, and long-pass (LP) filters with normal slits. The background fluorescence from the vesicles alone was negligible. Samples were prepared for fluorescence measurements by adding 30 μl of each of the peptides at 1 mg/ml to 30 μl of lipid/PDA vesicles followed by addition of 30 μl 50 mM Tris-base buffer (pH = 8.0). The samples were incubated at 27°C during the measurements. […]

[6] = Lipid/PDA vesicle fluorescent chromatic response, DOPE-containing model membrane; settings: DOPE/DMPG/ErgS/PDA SUVs; peptide 1 mg/ml stock, Tris-base buffer pH 8.0, 27°C, %FCR
Description: as §1, §2

[7] = kinetic growth inhibition, OD600

KRLFKEFLFSLRKY [L7F, single-amino-acid mutation L7F of dhvar2 (…), self-assembling derivative]
FITC positive fluorescence (membrane permeabilization) [1]: 95%
antibacterial activity, fold more active than dhvar2 [2, 7]: 4 fold
peptide concentration that completely inhibited growth ([2]; serial 2-fold dilutions, 37°C, OD600, representative of three experiments): 125 µg/mL
antibacterial activity, fold more active than dhvar2 [3, 7]: 2 fold
peptide concentration that completely inhibited growth ([3]; serial 2-fold dilutions, OD600, representative of three experiments): 250 µg/mL
self-assembly / morphology of assemblies (TEM) [4]: long, unbranched nanoassemblies

KRLFKELLFSLRKY [dhvar2, well-characterized histatin 5 derivative, …, reference compound]
FITC positive fluorescence (membrane permeabilization) [1]: 95%
colorimetric response, fold lower than that to L7F [5]: 2 fold
fluorescent chromatic response, fold lower than that to L7F [6]: 2 fold
self-assembly / morphology of assemblies (TEM) [4]: no ordered assemblies
